What was measured:
[1] = Solubility of the compound in aqueous buffer; type: physicochemical
[2] = Toxicity in anesthetized mongrel dog assessed as induction of major hemodynamic changes at 10 mg/kg, iv; type: organism-based, Canis lupus familiaris; conditions: in vivo
[3] = Stability of the compound; type: physicochemical
[4] = Ratio of AUC in Sprague-Dawley rat at 300 mg/kg, po administered as single dose by ESI-LC-MS/MS method to AUC in Sprague-Dawley rat at 100 mg/kg, po administered as single dose by ESI-LC-MS/MS method; type: ADME, organism-based; conditions: in vivo
[5] = Half life in Sprague-Dawley rat at 10 mg/kg, po administered as single dose by ESI-LC-MS/MS method; type: ADME, organism-based; conditions: in vivo
[6] = Oral bioavailability in urethane-chloralose anesthetized pig at 3 mg/kg, id; type: ADME, organism-based, Sus scrofa; conditions: in vivo
Sus scrofa [7] = assay: Inhibition of upper airway collapsibility in urethane-chloralose anesthetized pig assessed as time duration for onset of action at 1 mg/kg, id after 4 hrs; type: functional
[8] = Half life in Duroc Landrace pig at 3 mg/kg, po administered as single dose by ESI-LC-MS/MS method; type: ADME, organism-based, Sus scrofa; conditions: in vivo
[9] = Distribution coefficient, log D of the compound at pH 7.4; type: physicochemical; conditions: octanol/water
[10] = Lipophilicity, log P of the compound; type: physicochemical; conditions: octanol/water
[11] = Plasma concentration in Sprague-Dawley rat at 10 mg/kg, po after 24 hrs administered as single dose by ESI-LC-MS/MS method; type: ADME, organism-based
[12] = Oral bioavailability in Sprague-Dawley rat at 10 mg/kg administered as single dose by ESI-LC-MS/MS method; type: ADME, organism-based; conditions: in vivo
[13] = Tmax in Duroc Landrace pig at 3 mg/kg, po administered as single dose by ESI-LC-MS/MS method; type: ADME, organism-based, Sus scrofa; conditions: in vivo
[14] = Toxicity in anesthetized mongrel dog assessed as induction of major electrophysiological changes at 10 mg/kg, iv; type: organism-based, Canis lupus familiaris; conditions: in vivo
Sus scrofa [15] = assay: Inhibition of upper airway collapsibility in urethane-chloralose anesthetized pig assessed as time duration for onset of action at 3 mg/kg, id after 4 hrs; type: functional
[16] = Tmax in Sprague-Dawley rat at 10 mg/kg, po administered as single dose by ESI-LC-MS/MS method; type: ADME, organism-based; conditions: in vivo
[17] = Ratio of AUC in Sprague-Dawley rat at 100 mg/kg, po administered as single dose by ESI-LC-MS/MS method to AUC in Sprague-Dawley rat at 10 mg/kg, po administered as single dose by ESI-LC-MS/MS method; type: ADME, organism-based; conditions: in vivo
[18] = Ratio of Cmax in Sprague-Dawley rat at 100 mg/kg, po administered as single dose by ESI-LC-MS/MS method to Cmax in Sprague-Dawley rat at 10 mg/kg, po administered as single dose by ESI-LC-MS/MS method; type: ADME, organism-based; conditions: in vivo
[19] = Cmax in Sprague-Dawley rat at 10 mg/kg, po administered as single dose by ESI-LC-MS/MS method; type: ADME, organism-based; design: dose 10 mg/kg, route oral; conditions: in vivo
[20] = Oral bioavailability in Duroc Landrace pig at 3 mg/kg administered as single dose by ESI-LC-MS/MS method; type: ADME, organism-based, Sus scrofa; conditions: in vivo

With Cc1nnc(C)n1-c1ccc(O[C@H]2c3cc(Cl)cc(Cl)c3C[C@@H]2N2CC[C@@H](O)C2)c(F)c1.O=P(O)(O)O as the molecule, how does the solubility [1] read?
Its solubility is “Soluble”.

What about the Activity [2] of the same molecule?
The Activity was “Non-Toxic”.

What about the Stability [3] of the same molecule?
The Stability was “Stable”.

What about the Ratio [4] of the same molecule?
Its Ratio is 1.1.

And the half-life [5]?
Its half-life is 2.7 h.

What about the bioavailability [6] of the same molecule?
Its bioavailability is 61%.

What about the Time (Sus scrofa [7]) of the same molecule?
Its Time is 1 h.

What about the half-life [8] of the same molecule?
Its half-life is 18 h.

What about the logD [9] of the same molecule?
Its logD is 2.06.

And the logP [10]?
Its logP is 2.05.

And the concentration at 24 h [11]?
Its concentration at 24 h is under 1 ng/mL.

And the bioavailability [12]?
Its bioavailability is 42%.

What about the Tmax [13] of the same molecule?
Its Tmax is 0.5 h.

And the Activity [14]?
Its Activity is “Non-Toxic”.

And the Time (Sus scrofa [15])?
The Time was 1.5 h.

And the Tmax [16]?
The Tmax was 1 h.

And the Ratio [17]?
Its Ratio is 2.3.

And the Ratio [18]?
The Ratio was 2.3.

And the Cmax [19]?
Its Cmax is 570 ng/mL.

And the bioavailability [20]?
The bioavailability was 18 to 98%.

Source: ChEMBL document CHEMBL3860060, “Discovery and Optimization of 1-Phenoxy-2-aminoindanes as Potent, Selective, and Orally Bioavailable Inhibitors of the Na+/H+ Exchanger Type 3 (NHE3)” (J Med Chem, 2016)
